What all share (parameters): species or system mouse
The subject of assay [1] is de-endothelialized MCA segments of KCNMB1-/- mice permeabilized with β1 constructs. Nature of the assay: Cerebral artery diameter in vitro, KCNMB1-/- MCA permeabilized with β1 constructs. The conditions noted are these: Y32V and W163I substitutions; 50 mM EtOH. An excerpt: Eight-12 week-old C57BL/6J and KCNMB1^−/− on C57BL/6 background mice of both sexes were deeply anesthetized with isoflurane via inhalation in a tightly sealed jar. […] For de-endothelialized records, the endothelium was removed by passing an air bubble into the vessel lumen for 90 s[30]. This method has been consistently used by our group and validated using endothelium-dependent versus endothelium-independent vasodilators[16],[26]. Arteries were cannulated as previously described by our group[26],[40]. […] PSS was continuously bubbled with an O2/CO2/N2 (21/5/74%) gas mixture and maintained at 35–37 °C. The artery external wall diameter was measured using the automatic edge-detection function of lonWizard software (lonOptix) via Sanyo VCB-3512T camera (Sanyo Electric Co.). Arteries were first incubated at an intravascular pressure of 10 mm Hg for 10 min. Then intravascular pressure was increased to 60 mmHg and held steady throughout the experiment to induce myogenic tone development and maintenance[19],[30],[51]. […] To determine arterial viability, arterial contractility was probed with a high KCl solution at the end of each experiment. […] Like PSS, the high-KCl solution was continuously bubbled with O2/CO2/N2 (21/5/74%) gas mixture and maintained at 35–37 °C. […]

A further assay relates to MCA branches (C57BL/6J). Nature of the assay: EtOH-induced cerebrovascular constriction in vivo (cranial window). The conditions noted are these: individual replicates; for artery diameter, normalized to time 0: Fig 8E. The method, then:
Eight-12 week-old male and female C57BL/6J mice were anesthetized with a mixture of xylazine/ketamine (12/100 mg per kg) and kept anesthetized for the duration of the experiment with subsequent ketamine doses (50 mg/kg of weight) as needed. A catheter was inserted into the carotid artery so that the infusion went straight to the brain rather than towards the thoracic cavity. An area of the skull was cleared of tissue and thinned to expose the branching arteries originating from the MCA on the side the catheter was inserted, above the zygomatic arch, between the ear and eye of the skull[19],[34]. The exposed arteries branching out from the MCA were monitored using a Leica MC170 HD microscope with a mounted camera (Leica M125 C) connected to a computer monitor. Drugs were diluted to their final concentration in sodium saline (0.9% NaCl) and administered via catheter at 0.1 ml/25 g of weight. Cranial window images before and after drug administration were acquired every 60 seconds for subsequent analysis.

Assay [2] deals with de-endothelialized, pressurized MCA segments (C57BL/6 male). Nature of the assay: EtOH-induced constriction of pressurized MCA in vitro. The conditions noted are these: for change in artery diameter (EtOH-induced constriction): Fig 8B, individual replicates. The text has this:
Eight-12 week-old C57BL/6J and KCNMB1^−/− on C57BL/6 background mice of both sexes were deeply anesthetized with isoflurane via inhalation in a tightly sealed jar. Resistance size MCAs (~100 μm in external diameter) were dissected out of the mouse brains after animal euthanasia with sharp scissors. For de-endothelialized records, the endothelium was removed by passing an air bubble into the vessel lumen for 90 s[30]. This method has been consistently used by our group and validated using endothelium-dependent versus endothelium-independent vasodilators[16],[26]. Arteries were cannulated as previously described by our group[26],[40]. MCAs were cut into 5 to 10 mm-long segments under a microscope (Nikon SMZ645). The segment was cannulated at each end, and the artery exterior was continuously perfused with physiologic sodium saline (PSS) of the following composition (mM): 119 NaCl, 4.7 KCl, 1.2 KH2PO4, 1.6 CaCl2, 1.2 MgSO4, 0.023 EDTA, 11 glucose, 24 NaHCO3, pH=7.4. PSS was continuously bubbled with an O2/CO2/N2 (21/5/74%) gas mixture and maintained at 35–37 °C. The artery external wall diameter was measured using the automatic edge-detection function of lonWizard software (lonOptix) via Sanyo VCB-3512T camera (Sanyo Electric Co.). Arteries were first incubated at an intravascular pressure of 10 mm Hg for 10 min. Then intravascular pressure was increased to 60 mmHg and held steady throughout the experiment to induce myogenic tone development and maintenance[19],[30],[51]. Each artery segment was exposed to PROG, PROG-oxime (in presence and absence of 1 µM paxilline) only once to avoid development of desensitization during repeated applications of PROG-containing solution. To determine arterial viability, arterial contractility was probed with a high KCl solution at the end of each experiment. The high KCl solution was composed of the following composition (mM): 63.7 NaCl, 60 KCl, 1.2 KH2PO4, 1.2 MgSO4, 0.023 EDTA, 11 glucose, 24 NaHCO3, 1.6 CaCl2, pH=7.4. Like PSS, the high-KCl solution was continuously bubbled with O2/CO2/N2 (21/5/74%) gas mixture and maintained at 35–37 °C.

“And” between values parts separate entries of the source, which are not always exact repeats. Equal entries are not always repeated.

`CCO` [EtOH, ethanol]: the “constriction of MCA” value in assay [1] is listed as “constriction was still observed”. For the same molecule, the “artery diameter, normalized to time 0” value is 1 (5×) and 0.9973 with MCA branches (C57BL/6J) (time 0); 1 (2×) and 0.9893 and 0.9693 and 1.069 and 0.888 with MCA branches (C57BL/6J) (time 1); 0.8687 and 0.8304 and 0.7155 and 0.777 and 1.057 and 0.6934 in the assay with MCA branches (C57BL/6J) (time 2); 0.7831 and 1 and 0.7857 and 0.8444 and 1.014 and 0.8086 with MCA branches (C57BL/6J) (time 3); 0.7004 and 0.7657 and 0.7155 and 0.7188 and 0.9449 and 0.6934 in the assay on MCA branches (C57BL/6J) (time 4); 0.6515 and 0.8304 and 0.7857 and 0.7691 and 0.9335 and 0.8086 with MCA branches (C57BL/6J) (time 5). In addition, the “artery diameter, normalized to time 0” value was 0.7831 and 1 and 0.8849 and 0.8691 and 0.8118 and 0.8086 in the assay with MCA branches (C57BL/6J) (time 6); 0.7397 and 0.7657 and 0.8849 and 0.7997 and 0.85 and 0.8086 in the assay on MCA branches (C57BL/6J) (time 7); 0.7004 and 1 and 0.9584 and 0.8381 and 0.823 and 0.6934 in the assay on MCA branches (C57BL/6J) (time 8); 0.6515 and 0.9469 and 0.8849 and 0.7942 and 0.8049 and 0.6934 in the assay with MCA branches (C57BL/6J) (time 9); 0.6515 and 1 and 0.8849 and 0.8075 and 0.8892 and 0.6934 with MCA branches (C57BL/6J) (time 10); 0.7831 and 1 and 0.8231 and 0.8249 and 0.8605 and 0.6934 in the assay on MCA branches (C57BL/6J) (time 11). The “artery diameter, normalized to time 0” value in the assay with MCA branches (C57BL/6J) (time 12) is 0.7004 and 0.9469 and 0.9893 and 0.8811 and 0.8191 and 0.888; with MCA branches (C57BL/6J) (time 13), 0.6515 and 0.8304 and 0.8849 and 0.7651 and 0.797 and 0.6934. For the same molecule, the “artery diameter, normalized (group comparison)” value with MCA branches (C57BL/6J) (Fig 8F) is 0.6886 and 0.733 and 0.6331 and 0.6127 and 0.7046 and 0.7541. The “EtOH concentration close to EC100 for MCA constriction” value in assay [2] is given as approximately 50 mM. Further, the “change in artery diameter (EtOH-induced constriction)” value in assay [2] (EtOH 10mM) is -3.481 and -2.957 and -4.155 and -5.135 and -0.8602; in assay [2] (EtOH 35mM) it was -3.0303 and -4.876 and -3.6836 and -8.271 and -6.594; in assay [2] (EtOH 50mM), -6.879 and -7.897 and -7.7 and -14.4262 and -10.9422; in assay [2] (EtOH 75mM), -7.692 and -11.3856 and -9.864 and -10.7879 and -9.705.
